{"source": "ChEMBL document CHEMBL2073959", "about": "“The human bile salt export pump: characterization of substrate specificity and identification of inhibitors” (Gastroenterology, 2002)", "key": {"Bile salt export pump [1]": {"molecular_target": "T1, Bile salt export pump (Homo sapiens, UniProt O95342)", "T1 sequence (O95342 whole entry)": "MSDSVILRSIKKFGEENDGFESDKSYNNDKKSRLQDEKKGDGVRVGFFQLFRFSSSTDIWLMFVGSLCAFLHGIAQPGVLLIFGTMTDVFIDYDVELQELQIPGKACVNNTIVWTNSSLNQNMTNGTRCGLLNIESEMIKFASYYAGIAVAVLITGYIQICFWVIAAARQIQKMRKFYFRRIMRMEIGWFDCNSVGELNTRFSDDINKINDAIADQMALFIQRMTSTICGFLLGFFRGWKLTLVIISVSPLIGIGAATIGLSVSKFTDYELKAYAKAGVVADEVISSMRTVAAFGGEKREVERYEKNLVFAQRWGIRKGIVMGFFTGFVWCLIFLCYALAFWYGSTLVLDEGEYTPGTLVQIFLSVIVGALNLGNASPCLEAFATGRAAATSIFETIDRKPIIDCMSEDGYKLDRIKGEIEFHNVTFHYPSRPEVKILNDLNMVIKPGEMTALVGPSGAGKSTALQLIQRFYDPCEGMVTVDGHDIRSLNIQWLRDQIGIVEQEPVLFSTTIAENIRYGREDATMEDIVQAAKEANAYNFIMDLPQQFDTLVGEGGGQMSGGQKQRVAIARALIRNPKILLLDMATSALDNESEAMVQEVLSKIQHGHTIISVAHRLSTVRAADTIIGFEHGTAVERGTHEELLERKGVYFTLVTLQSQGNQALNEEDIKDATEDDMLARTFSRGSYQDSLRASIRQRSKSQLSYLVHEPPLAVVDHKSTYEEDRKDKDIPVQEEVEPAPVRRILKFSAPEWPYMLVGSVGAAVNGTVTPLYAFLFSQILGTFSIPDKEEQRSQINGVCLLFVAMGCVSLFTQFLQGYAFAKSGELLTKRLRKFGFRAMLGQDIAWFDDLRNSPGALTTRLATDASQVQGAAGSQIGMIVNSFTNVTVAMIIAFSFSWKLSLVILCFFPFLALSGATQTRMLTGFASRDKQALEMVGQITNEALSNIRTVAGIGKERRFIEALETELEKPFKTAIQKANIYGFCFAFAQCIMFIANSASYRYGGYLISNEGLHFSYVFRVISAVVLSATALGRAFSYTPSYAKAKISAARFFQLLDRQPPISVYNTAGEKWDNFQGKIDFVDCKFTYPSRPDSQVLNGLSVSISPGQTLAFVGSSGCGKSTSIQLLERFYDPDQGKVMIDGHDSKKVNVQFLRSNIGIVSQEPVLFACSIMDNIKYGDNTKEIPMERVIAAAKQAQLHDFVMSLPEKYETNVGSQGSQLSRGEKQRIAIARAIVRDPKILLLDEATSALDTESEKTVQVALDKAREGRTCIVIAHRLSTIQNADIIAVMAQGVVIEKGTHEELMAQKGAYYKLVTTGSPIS", "test": "TP_TRANSPORTER: competitive inhibition of Taurocholate uptake in membrane vesicles prepared from High Five cells infected with the ABCB11 baculovirus", "format": "functional, cell membranes, BTI-TN-5B1-4, Membrane vesicle"}, "Bile salt export pump [2]": {"molecular_target": "T1, Bile salt export pump", "test": "TP_TRANSPORTER: inhibition of Taurocholate uptake(Rifampicin SV 30uM, 50 % of control) in membrane vesicles prepared from High Five cells infected with the ABCB11 baculovirus", "format": "functional, cell membranes, BTI-TN-5B1-4, Membrane vesicle"}}, "data": [{"smiles": "C[C@H](CCC(=O)NCCS(=O)(=O)O)[C@H]1CC[C@H]2[C@@H]3[C@H](O)C[C@@H]4C[C@H](O)CC[C@]4(C)[C@H]3CC[C@]12C", "note": "[TAUROCHENODEOXYCHOLATE]", "values": [{"measurement": "Ki", "setting": "Bile salt export pump [1]", "value": 28, "unit": "µM"}]}, {"smiles": "C[C@H](CCC(=O)NCC(=O)O)[C@H]1CC[C@H]2[C@@H]3[C@H](O)C[C@@H]4C[C@H](O)CC[C@]4(C)[C@H]3C[C@H](O)[C@]12C", "note": "[GLYCOCHOLIC ACID]", "values": [{"measurement": "Ki", "setting": "Bile salt export pump [1]", "value": 11, "unit": "µM"}]}, {"smiles": "C[C@H](CCC(=O)NCC(=O)O)[C@H]1CC[C@H]2[C@@H]3[C@H](O)C[C@@H]4C[C@H](O)CC[C@]4(C)[C@H]3CC[C@]12C", "note": "[GLYCOCHENODEOXYCHOLATE]", "values": [{"measurement": "Ki", "setting": "Bile salt export pump [1]", "value": 7, "unit": "µM"}]}, {"smiles": "CO[C@H]1/C=C/O[C@@]2(C)Oc3c(C)c(O)c4c(O)c(cc(O)c4c3C2=O)NC(=O)/C(C)=C\\C=C\\[C@H](C)[C@H](O)[C@@H](C)[C@@H](O)[C@@H](C)[C@H](OC(C)=O)[C@@H]1C", "note": "[RIFAMYCIN]", "values": [{"measurement": "Ki", "setting": "Bile salt export pump [2]", "value": 31, "unit": "µM"}]}]}
